In patent publication US20170258930A1, “SKIN PENETRATING PEPTIDES (SPPS) AND METHODS OF USE THEREFOR” (The Regents of the University of California, priority 2014, published 2017):

What follows are sequences tested on full thickness porcine skin (assay: Phage display library (PDL) screening for skin penetrating peptides on porcine skin in Franz diffusion cells). Details: after third round of screening; phage-displayed 12-mer peptides; four different skin samples (n = 4); receptor collected after 24 hours.
Format: in vitro ADME
Method: Phage Display Library (PDL) screening was performed on full thickness porcine skin using Franz diffusion cells. Porcine skin was sandwiched in between the donor and receptor compartments in such a way that SC faced the donor compartment. Phosphate-buffered saline (PBS: 10 mM), pH 7.4 (12 ml) was added in the receptor compartment. The skin was equilibrated at 37° C. for 0.5-1 hours before the experiment. The skin integrity was determined by measuring the skin conductivity.
To perform PDL screening, 1×10^11 plaque forming units (pfu) of phages from a 12-mer phage display peptide library (PDL) were added into the donor compartment and covered with parafilm to maintain the occlusive condition. Phage particles which permeated across the skin were collected from the receptor chamber after 24 hours and amplified using a standard M13 phage amplification protocol. Amplified pool of phages (1×10^11 pfu) was loaded again in the donor chamber for another round of screening. In this way, three rounds of screenings were performed.
After third round of screening, DNAs were isolated from phages, which crossed the skin consistently in higher numbers, and sent for DNA sequencing to analyze the peptide present on their surface. After three round of screening, seven (7) peptide sequences that consistently crossed the skin were identified (see Table 3). […] The identified peptides, SEQ ID NOs: 1-7, are referred to herein as skin penetrating peptides (SPPs).

Row | Sequence | Frequency (how many times a same peptide sequence was identified when 31 peptides were randomly picked from the receptor compartment)
1 | SYTQRADSTTLH [SYTQRADSTTLH (SEQ ID NO: 2), 12-mer skin penetrating peptide (SPP) identified by phage display library screening on porcine skin] | 3 out of 31
2 | AYNAGSILENNF [YNAGSILENNF (SEQ ID NO: 5), 12-mer skin penetrating peptide (SPP) identified by phage display library screening on porcine skin] | 2 out of 31
3 | HIITDPNMAEYL [HIITDPNMAEYL (SEQ ID NO: 1), 12-mer skin penetrating peptide (SPP) identified by phage display library screening on porcine skin] | 8 out of 31
4 | LVPDRMTAISRA [LVPDRMTAISRA (SEQ ID NO: 6), 12-mer skin penetrating peptide (SPP) identified by phage display library screening on porcine skin] | 2 out of 31
5 | SHMQNRPASDEH [SHMQNRPASDEH (SEQ ID NO: 4), 12-mer skin penetrating peptide (SPP) identified by phage display library screening on porcine skin] | 3 out of 31
6 | NSLRNYDFLITM [NSLRNYDFLITM (SEQ ID NO: 7), 12-mer skin penetrating peptide (SPP) identified by phage display library screening on porcine skin] | 2 out of 31
7 | GYGFSNTNSFFV [GYGFSNTNSFFV (SEQ ID NO: 3), 12-mer skin penetrating peptide (SPP) identified by phage display library screening on porcine skin] | 3 out of 31

Same assay, conditions: after three rounds of screening, full thickness porcine skin

Row | Sequence | Crossing of the skin by phage displaying the peptide (in words)
8 | HIITDPNMAEYL [HIITDPNMAEYL (SEQ ID NO: 1), 12-mer skin penetrating peptide (SPP) identified by phage display library screening on porcine skin] | crossed the skin at very high frequency
